The structures appear in SMILES notation. pIC50: −log10 of the molar value. Numbered stars: 1 amine (or outer) side, 2 acyl side, 3 side chain; on linkers, the order of the positions; unused ones are H or OH. Bridge positions count the residues as written; N and C are the ends. Square brackets hold non-standard residues; d marks the D form. Peptide text beside a SMILES is read from it. * marks the point of attachment. hPhe(3-Cl-4-CF3) = N[C@@H](CCc1ccc(C(F)(F)F)c(Cl)c1)C(=O)O; X115 = O=C([C@H](CCc1ccc(S(F)(F)(F)(F)F)cc1)N[*:1])[*:2]; NMePhe(3-Cl) = CN[C@@H](Cc1cccc(Cl)c1)C(=O)O; NMePhe(4-Cl) = CN[C@@H](Cc1ccc(Cl)cc1)C(=O)O; NMePhe(4-F) = CN[C@@H](Cc1ccc(F)cc1)C(=O)O; NMeMet(O2) = CN[C@@H](CCS(C)(=O)=O)C(=O)O; X77 = O=C(CN(CCN1CCC(F)(F)CC1)[*:1])[*:2]; NMeGly(cPent) = CN[C@H](C(=O)O)C1CCCC1; NMehPhe = CN[C@@H](CCc1ccccc1)C(=O)O; NMeCha = CN[C@@H](CC1CCCCC1)C(=O)O; NMeF = CN[C@@H](Cc1ccccc1)C(=O)O; NMeD = CN[C@@H](CC(=O)O)C(=O)O; NMeL = CN[C@@H](CC(C)C)C(=O)O; NMeV = CN[C@H](C(=O)O)C(C)C; d(β3hA) = C[C@@H](N)CC(=O)O; NMeA = CN[C@@H](C)C(=O)O; Piperidide = C1CCN(*)CC1; dNMeA = CN[C@H](C)C(=O)O; Ac5c = NC1(C(=O)O)CCCC1; Aze = O=C(O)[C@@H]1CCN1; Nleu = CC(C)CNCC(=O)O; Sar = CNCC(=O)O

In the assay the test system is Human pancreatic cancer cell line AsPC-1 (G12D mutation Kras). The experiment in a line: AsPC-1 cell growth inhibition (AsPC-1 CGI). In kind it is cell-based. Conditions: read-out: AsPC-1 cell growth inhibition, 50% growth inhibitory concentration (IC50 value); 96 hours, CellTiter-Glo, values classified in ranges. On the technique in general: ATP-based viability assays read luminescence as a measure of living cells.
Protocol: Test compounds were serially dilated with dimethyl sulfoxide, and 200 nL was then dispensed to a U-bottom 96-well plate using Labcyte Echo. […] The cell suspension was dispensed to a. plate containing a test compound at 100 μL per well and incubated at 37° C. in a 5% carbon dioxide gas incubator. 96 hours later, 80 μL of CellTiter-Glo (Promega) was added to each well and fluorescence was measured.
In the case of `CC[C@H](C)[C@@H]1NC(=O)[C@H](CC(C)C)N(C)C(=O)C[C@@H](C)NC(=O)[C@H](C(C)C)N(C)C(=O)C2(CCCC2)NC(=O)[C@@H]2CCCN2C(=O)[C@H](CCc2ccc(C(F)(F)F)c(Cl)c2)NC(=O)CN(C)C(=O)[C@H](CC2CCCCC2)N(C)C(=O)CN(C)C(=O)CN(CC(C)C)C1=O` [Compound 970] (cyclo([Ac5c][NMeV][d(β3hA)][NMeL]I[Nleu][Sar][NMeCha][Sar][hPhe(3-Cl-4-CF3)]P)), the pIC50 is below 6.30. With `CC[C@H](C)[C@@H]1NC(=O)[C@H](CC(C)C)N(C)C(=O)C[C@@H](C(=O)N2CCCCC2)N(C)C(=O)[C@H](C(C)C)N(C)C(=O)C2(CCCC2)NC(=O)[C@@H](C)NC(=O)[C@H](CCc2ccc(C(F)(F)F)c(Cl)c2)NC(=O)CN(C)C(=O)[C@H](CC2CCCCC2)N(C)C(=O)[C@@H]2CCN2C(=O)[C@H](C)N(C)C1=O` [Compound 1314] ([NMeL]I[NMeA][Aze][NMeCha][Sar][hPhe(3-Cl-4-CF3)][dA][Ac5c][NMeV][NMeD]-Piperidide; lactam N-11), the pIC50 was below 6.30. Take `CC[C@H](C)[C@@H]1NC(=O)[C@H](CC(C)C)N(C)C(=O)C[C@@H](C)NC(=O)[C@H](CC(C)C)N(C)C(=O)C2(CCCC2)NC(=O)[C@@H]2CCCN2C(=O)[C@H](CCc2ccc(S(F)(F)(F)(F)F)cc2)NC(=O)CN(C)C(=O)[C@H](CC2CCCCC2)N(C)C(=O)CN(C)C(=O)CN(C)C1=O` [Compound 1021] (cyclo([Ac5c][NMeL][d(β3hA)][NMeL]I[Sar][Sar][NMeCha][Sar][X115]P)): the pIC50 is below 6.30.

As to `CC[C@H](C)[C@@H]1NC(=O)[C@H](CC(C)C)N(C)C(=O)C[C@@H](C(=O)N(C)C)N(C)C(=O)[C@H](C2CCCC2)N(C)C(=O)[C@H](C(C)C)NC(=O)[C@@H](C)NC(=O)[C@H](CCc2ccc(C(F)(F)F)c(Cl)c2)NC(=O)CN(C)C(=O)[C@H](CC2CCCCC2)N(C)C(=O)[C@@H]2CCN2C(=O)[C@H](C)N(C)C1=O` [Compound 24] ([NMeL]I[NMeA][Aze][NMeCha][Sar][hPhe(3-Cl-4-CF3)][dA]V[NMeGly(cPent)][NMeD]-NMe2; lactam N-11), the pIC50 was below 6.30.

Regarding `CC[C@H](C)[C@@H]1NC(=O)[C@H](CC(C)C)N(C)C(=O)C[C@@H](C(=O)N(C)C)N(C)C(=O)[C@H](C2CCCC2)N(C)C(=O)C2(CCCC2)NC(=O)[C@H](Cc2cccc(Cl)c2)N(C)C(=O)[C@H](CCc2ccc(C(F)(F)F)c(Cl)c2)NC(=O)CN(C)C(=O)[C@H](CC2CCCCC2)N(C)C(=O)[C@@H]2CCN2C(=O)[C@H](C)N(C)C1=O` [Compound 179] ([NMeL]I[NMeA][Aze][NMeCha][Sar][hPhe(3-Cl-4-CF3)][NMePhe(3-Cl)][Ac5c][NMeGly(cPent)][NMeD]-NMe2; lactam N-11), the pIC50 was below 6.30. In the case of `CC[C@H](C)[C@@H]1NC(=O)[C@H](C)N(C)C(=O)C[C@@H](C)NC(=O)[C@H](C(C)C)N(C)C(=O)[C@H](Cc2ccccc2)N(C)C(=O)[C@H](CC(C)C)N(C)C(=O)[C@H](CCc2ccc(C(F)(F)F)c(Cl)c2)NC(=O)CN(C)C(=O)[C@H](Cc2ccc(Cl)cc2)N(C)C(=O)CN(C)C(=O)CN(C)C1=O` [Compound 1079] (cyclo(I[Sar][Sar][NMePhe(4-Cl)][Sar][hPhe(3-Cl-4-CF3)][NMeL][NMeF][NMeV][d(β3hA)][NMeA])), the pIC50 is below 6.30. Next, `CC[C@H](C)[C@@H]1NC(=O)[C@H](CC(C)C)N(C)C(=O)C[C@@H](C)NC(=O)[C@H](C(C)C)N(C)C(=O)C2(CCCC2)NC(=O)[C@@H]2CCCN2C(=O)[C@H](CCc2ccc(C(F)(F)F)c(Cl)c2)NC(=O)CN(C)C(=O)[C@H](CC2CCCCC2)N(C)C(=O)CN(C)C(=O)CN(CCN2CCC(F)(F)CC2)C1=O` [Compound 635] (cyclo([Ac5c][NMeV][d(β3hA)][NMeL]I[X77][Sar][NMeCha][Sar][hPhe(3-Cl-4-CF3)]P)): below 6.30; `CC[C@H](C)[C@@H]1NC(=O)[C@H](CC(C)C)N(C)C(=O)C[C@@H](C(=O)N2CCCCC2)N(C)C(=O)[C@H](C(C)C)N(C)C(=O)C2(CCCC2)NC(=O)[C@@H]2CCCN2C(=O)[C@H](CCc2ccc(C(F)(F)F)c(Cl)c2)NC(=O)CN(C)C(=O)[C@H](CCS(C)(=O)=O)N(C)C(=O)[C@@H]2CCN2C(=O)[C@H](C)N(C)C1=O` [Compound 235] ([NMeL]I[NMeA][Aze][NMeMet(O2)][Sar][hPhe(3-Cl-4-CF3)]P[Ac5c][NMeV][NMeD]-Piperidide; lactam N-11): below 6.30; `CC[C@H](C)[C@@H]1NC(=O)[C@H](CC(C)C)N(C)C(=O)C[C@@H](C)NC(=O)[C@H](C(C)C)N(C)C(=O)C2(CCCC2)NC(=O)[C@@H]2CCCN2C(=O)[C@H](CCc2ccc(C(F)(F)F)c(Cl)c2)NC(=O)CN(C)C(=O)[C@H](CCc2ccccc2)N(C)C(=O)CN(C)C(=O)CN(C)C1=O` [Compound 1627] (cyclo([Ac5c][NMeV][d(β3hA)][NMeL]I[Sar][Sar][NMehPhe][Sar][hPhe(3-Cl-4-CF3)]P)): below 6.30. Turning to `CC[C@H](C)[C@@H]1NC(=O)[C@H](C)N(C)C(=O)C[C@@H](C(=O)N2CCCCC2)N(C)C(=O)[C@H](C(C)C)N(C)C(=O)C2(CCCC2)NC(=O)[C@@H]2CCCN2C(=O)[C@H](CCc2ccc(C(F)(F)F)c(Cl)c2)NC(=O)[C@@H](C)N(C)C(=O)[C@H](Cc2ccc(F)cc2)N(C)C(=O)CN(C)C(=O)CN(C)C1=O` [Compound 1755] ([NMeA]I[Sar][Sar][NMePhe(4-F)][dNMeA][hPhe(3-Cl-4-CF3)]P[Ac5c][NMeV][NMeD]-Piperidide; lactam N-11), the pIC50 was below 6.30.

These data come from patent publication US20240148821A1, “PHARMACEUTICAL USE OF CYCLIC PEPTIDE COMPOUND” (CHUGAI SEIYAKU KABUSHIKI KAISHA, priority 2021, published 2024).
